Experimental data from patent US20210317092A1 (BAYER PHARMA AKTIENGESELLSCHAFT, priority 2016, published 2021).
Like-named read-outs stand apart in the source and are kept apart here.

Target: T1, human Bradykinin B1 receptor (Homo sapiens, UniProt P46663)
T1 construct: host or cells: CHO-K1
T1 sequence (P46663 1-353): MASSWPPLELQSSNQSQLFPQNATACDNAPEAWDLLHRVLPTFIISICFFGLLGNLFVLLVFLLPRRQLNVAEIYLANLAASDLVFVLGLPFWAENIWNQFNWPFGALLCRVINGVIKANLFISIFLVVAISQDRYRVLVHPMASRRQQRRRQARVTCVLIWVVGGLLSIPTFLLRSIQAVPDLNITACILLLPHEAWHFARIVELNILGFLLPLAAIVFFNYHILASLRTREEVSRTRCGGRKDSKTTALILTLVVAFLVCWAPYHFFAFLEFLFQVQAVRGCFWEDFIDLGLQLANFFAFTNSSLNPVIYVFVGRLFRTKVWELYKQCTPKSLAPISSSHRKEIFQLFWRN
Experiment: Calcium flux Assay (FLIPR) with recombinant CHO-K1 cells expressing human Bradykinin B1 receptor, in presence (hB1 IC50) or absence (hB1 free IC50) of 0.1% BSA
Assay type: cell-based

[1] = in presence of 0.1% BSA, read-out: hB1 IC50
[2] = in absence of 0.1% BSA, read-out: hB1 free IC50

| SMILES | IC50 [1] [nM] | IC50 [2] [nM] |
| --- | --- | --- |
| COc1ncc(-c2ccc(NC(=O)C3(c4cccc(Cl)c4)CC3)cc2-c2nnn[nH]2)cn1 [Example 333, 1-(3-chlorophenyl)-N-[4-(2-methoxypyrimidin-5-yl)-3-(1H-tetrazol-5-yl)phenyl]cyclopro-panecarboxa-mide] | 420 | – |
| N#Cc1ncc(-c2ccc(NC(=O)C3(c4cccc(Cl)c4)CC3)cc2-c2nnn[nH]2)cn1 [Example 334, 1-(3-chlorophenyl)-N-[4-(2-cyanopyrimidin-5-yl)-3-(1H-tetrazol-5-yl)phenyl]cyclopro-panecarboxa-mide] | 936 | 99.8 |
| O=C(Nc1ccc(-c2cncc(F)c2)c(-c2nnn[nH]2)c1)C1(c2cccc(Cl)c2)CC1 [Example 335, 1-(3-chlorophenyl)-N-[4-(5-fluoropyridin-3-yl)-3-(1H-tetrazol-5-yl)phenyl]cyclopro-panecarboxa-mide] | 517 | 298 |
| N#Cc1cncc(-c2ccc(NC(=O)C3(c4cccc(Cl)c4)CC3)cc2-c2nnn[nH]2)c1 [Example 336, 1-(3-chlorophenyl)-N-[4-(5-cyanopyridin-3-yl)-3-(1H-tetrazol-5-yl)phenyl]cyclopro-panecarboxa-mide] | 1320 | – |
| N#Cc1cc(F)cc(-c2ccc(NC(=O)C3(c4cccc(Cl)c4)CC3)cc2-c2nnn[nH]2)c1 [Example 337, 1-(3-chlorophenyl)-N-[3′-cyano-5′-fluoro-2-(1H-tetrazol-5-yl)biphenyl-4-yl]cyclopropane carboxamide] | 2030 | – |
| Cn1ncc2cc(-c3ccc(NC(=O)C4(c5cccc(Cl)c5)CC4)cc3-c3nnn[nH]3)ccc21 [Example 339, 1-(3-chlorophenyl)-N-[4-(1-methyl-1H-indazol-5-yl)-3-(1H-tetrazol-5-yll)phenyl]cyclopro-panecarboxa-mide] | 46.7 | 23.7 |
| O=C(Nc1ccc(-c2ccc(Cl)nc2)c(-c2nnn[nH]2)c1)C1(c2cccc(Cl)c2)CC1 [Example 341, 1-(3-chlorophenyl)-N-[4-(6-chloropyridin-3-yl)-3-(1H-tetrazol-5-yl)phenyl]cyclopro-panecarboxa-mide] | 115 | 87.3 |
| CCOc1ccc(-c2cc(F)c(NC(=O)C3(c4cccc(Cl)c4)CC3)cc2-c2nnn[nH]2)cn1 [Example 342, 1-(3-chlorophenyl)-N-[4-(6-ethoxypyridin-3-yl)-2-fluoro-5-(1H-tetrazol-5-yl)phenyl]cyclopro-panecarboxa-mide] | 1770 | – |
| O=C(Nc1ccc(-n2cc(C(F)(F)F)cn2)c(-c2nnn[nH]2)c1)C1(c2ccc(C(F)(F)F)cc2F)CC1 [Example 345, 1-[2-Fluoro-4-(trifluoromethyl)phenyl]-N-{3-(1H-tetrazol-5-yl)-4-[4-(trifluoromethyl)-1H-pyrazol-1-yl]phenyl}cyclopropanecarboxamide] | – | 28.5 |
| O=C(Nc1ccc(-n2cc(C(F)F)cn2)c(-c2nnn[nH]2)c1)C1(c2ccc(C(F)(F)F)cc2F)CC1 [Example 346, N-{4-[4-(Difluoromethyl)-1H-pyrazol-1-yl]-3-(1H-tetrazol-5-yl)phenyl}-1-[2-fluoro-4-(trifluoromethyl)phenyl]cyclopro-panecarboxamide] | – | 65.9 |
| O=C(Nc1ccc(-n2cnc(C(F)(F)F)c2)c(-c2nnn[nH]2)c1)C1(c2ccc(C(F)(F)F)cc2F)CC1 [Example 347, 1-[2-Fluoro-4-(trifluoromethyl)phenyl]-N-{3-(1H-tetrazol-5-yl)-4-[4-(trifluoromethyl)-1H-imidazol-1-yl]phenyl}cyclopro-panecarboxa-mide] | – | 96.6 |
| O=C(Nc1ccc(-n2ccc(C(F)(F)F)n2)c(-c2nnn[nH]2)c1)C1(c2ccc(C(F)(F)F)cc2F)CC1 [Example 348, 1-[2-Fluoro-4-(trifluoromethyl)phenyl]-N-{3-(1H-tetrazol-5-yl)-4-[3-(trifluoromethyl)-1H-pyrazol-1-yl]phenyl}cyclopro-panecarboxa-mide] | – | 122 |
| O=C(Nc1ccc(-n2cc(C(F)(F)F)cn2)c(-c2nnn[nH]2)c1)C1(c2cccc(Cl)c2)CC1 [Example 349, 1-(3-Chlorophenyl)-N-{3-(1H-tetrazol-5-yl)-4-[4-(trifluoromethyl)-1H-pyrazol-1-yl]phenyl}cyclopro-panecarboxa-mide] | – | 590 |
| O=C(Nc1ccc(-n2cc(C(F)F)cn2)c(-c2nnn[nH]2)c1)C1(c2cccc(Cl)c2)CC1 [Example 350, 1-(3-Chlorophenyl)-N-{4-[4-(difluoromethyl)-1H-pyrazol-1-yl]-3-(1H-tetrazol-5-yl)phenyl}cyclopro-panecarboxa-mide] | – | 804 |
| O=C(Nc1ccc(-n2cc(C(F)(F)F)cn2)c(-c2nnn[nH]2)c1)C1(c2ccc(F)c(F)c2)CC1 [Example 351, 1-(3,4-Difluorophenyl)-N-{3-(1H-tetrazol-5-yl)-4-[4-(trifluoromethyl)-1H-pyrazol-1-yl]phenyl}cyclopro-panecarboxa-mide] | – | 1060 |
| O=C(Nc1ccc(-n2cnc(C(F)(F)F)c2)c(-c2nnn[nH]2)c1)C1(c2cccc(Cl)c2)CC1 [Example 352, 1-(3-Chlorophenyl)-N-{3-(1H-tetrazol-5-yl)-4-[4-(trifluoromethyl)-1H-imidazol-1-yl]phenyl}cyclopro-panecarboxa-mide] | – | 1200 |
| O=C(Nc1ccc(-n2cc(C(F)F)cn2)c(-c2nnn[nH]2)c1)C1(c2ccc(F)c(F)c2)CC1 [Example 353, N-{4-[4-(Difluoromethyl)-1H-pyrazol-1-yl]-3-(1H-tetrazol-5-yl)phenyl}-1-(3,4-difluorophenyl)cy-clopropanecar-boxamide] | – | 1210 |
| O=C(Nc1ccc(-n2ccc(C(F)(F)F)n2)c(-c2nnn[nH]2)c1)C1(c2cccc(Cl)c2)CC1 [Example 354, 1-(3-Chlorophenyl)-N-{3-(1H-tetrazol-5-yl)-4-[3-(trifluoromethyl)-1H-pyrazol-1-yl]phenyl}cyclopro-panecarboxa-mide] | – | 1880 |
| O=C(Nc1ccc(-n2ccc(C(F)(F)F)n2)c(-c2nnn[nH]2)c1)C1(c2ccc(F)c(F)c2)CC1 [Example 355, 1-(3,4-Difluorophenyl)-N-{3-(1H-tetrazol-5-yl)-4-[3-(trifluoromethyl)-1H-pyrazol-1-yl]phenyl}cyclopro-panecarboxa-mide] | – | 1880 |
| O=C(Nc1ccc(-n2cnc(C(F)(F)F)c2)c(-c2nnn[nH]2)c1)C1(c2ccc(F)c(F)c2)CC1 [Example 356, 1-(3,4-Difluorophenyl)-N-{3-(1H-tetrazol-5-yl)-4-[4-(trifluoromethyl)-1H-imidazol-1-yl]phenyl}cyclopro-panecarboxa-mide] | – | 2350 |
| O=C(Nc1ccc(-n2cnc(C3CCC3)n2)c(-c2nnn[nH]2)c1)C1(c2cccc(Cl)c2)CC1 [Example 357, 1-(3-chlorophenyl)-N-[4-(3-cyclobutyl-1H-1,2,4-triazol-1-yl)-3-(1H-tetrazol-5-yl)phenyl]cyclopro-panecarboxa-mide] | – | 44.8 |
| O=C(Nc1ccc(-n2cnc(C(F)(F)F)n2)c(-c2nnn[nH]2)c1)C1(c2ccc(F)c(F)c2)CC1 [Example 358, 1-(3,4-difluorophenyl)-N-{3-(1H-tetrazol-5-yl)-4-[3-(trifluoromethyl)-1H-1,2,4-triazol-1-yl]phenyl}cyclopro-panecarboxa-mide] | – | 2970 |
